Reference: patent US12064459B2, “Compositions and methods for improving skin health and for the treatment and prevention of diseases, disorders and conditions associated with pathogenic microbes” (priority 2019, dated 2024)
Values after ≈ are worked out from the molar mass of the structure shown. Like-named read-outs stand apart in the source and are kept apart here. Where a SMILES comes first, the peptide text is derived from it. Bridges are numbered along the chain shown (N, C = ends). [ ]: non-standard residue; d: D form. The star is where a group is joined. Ileψ(thiazoline)Cys = CC[C@H](C)[C@H](N)C1=N[C@H](C(=O)*)CS1; dOrn = NCCC[C@@H](N)C(=O)O

Experiments:
[1] = tested on: E. Coli ATCC25922; assay: Antibiotic MIC tests; format: cell-based; details: Escherichia coli
[2] = tested on: Janthinobacterium lividum strains; assay: Antibiotic MIC tests, resistance profile in words; format: cell-based; details: Table 7 and 8
Method: (§1) The antibiotic resistance profile and MICs tests were performed using Janthinobacterium lividum grown from cultures purified and grown in vegitone LB broth.

[3] = tested on: DB00121; assay: Antibiotic MIC tests; format: cell-based, Janthinobacterium lividum; details: strain DB00121
Method: as §1

[4] = tested on: DB00118; assay: Antibiotic MIC tests; format: cell-based, Janthinobacterium lividum; details: strain DB00118
Method: as §1

[5] = tested on: DB02378; assay: Antibiotic MIC tests; format: cell-based, Janthinobacterium lividum; details: strain DB02378
Method: as §1

[6] = tested on: DB02473; assay: Antibiotic MIC tests; format: cell-based, Janthinobacterium lividum; details: strain DB02473
Method: as §1

[7] = tested on: E. Coli ATCC25922; details: cited from earlier work
[8] = tested on: Janthinobacterium lividum strains; assay: Internal antibiotic resistance tests (BD BBL Sensi-Disc, zone of inhibition); format: cell-based; details: all 5 strains; disc content per antibiotic (e.g. penicillin 10 IU); FIG. 5
Method: One Janthinobacterium lividum colony of 3-day old grown in 50% BHI agar was mixed well in 1 ml of 1×PBS buffer, diluted 10× and 100×, respectively. 200 μl of diluted Janthinobacterium lividum cells were evenly plated onto R2A/BHI agar plates in triplicate in 150 mm petri dishes. Antibiotic discs (BD BBL Sensi-Disc antimicrobial susceptibility test discs) were dispensed using a Disc dispenser (BD BBL Sensi-Disc Designer Dispenser System, 12-Place). Plates were incubated for 2-3 days at room temperature and imaged at the end of incubation.
The sensitivity of Janthinobacterium lividum to antibiotics is reflected by a clear zone of inhibition of Janthinobacterium lividum cells surrounding the antibiotic discs. The zone of inhibition was measured using ImageJ and was transformed into cm for analysis.

[9] = Janthinobacterium lividum, read-out: MIC

Row | Compound | MIC [1] | sensitivity of Janthinobacterium lividum strains to antibiotics [2] | MIC [3, 9] | MIC [4, 9] | MIC [5, 9] | MIC [6, 9] | sensitivity of Janthinobacterium lividum to antibiotic discs [8] | also measured
1 | CC[C@H](C)[C@H](N)C1=N[C@H](C(=O)N[C@@H](CC(C)C)C(=O)N[C@H](CCC(=O)O)C(=O)N[C@H](C(=O)N[C@H]2CCCCNC(=O)[C@H](CC(N)=O)NC(=O)[C@@H](CC(=O)O)NC(=O)[C@H](Cc3cnc[nH]3)NC(=O)[C@@H](Cc3ccccc3)NC(=O)[C@H]([C@@H](C)CC)NC(=O)[C@@H](CCCN)NC2=O)[C@@H](C)CC)CS1 [Bacitracin] ({Ileψ(thiazoline)Cys}-L[dE]IK[dOrn]I[dF]H[dD]N; lactam 4-C) | > 64 µg/mL | resistant | > 64 µg/mL | > 64 µg/mL | > 64 µg/mL | > 64 µg/mL |  | 
2 | O=C(N[C@H](CO)[C@H](O)c1ccc([N+](=O)[O-])cc1)C(Cl)Cl [Chloramphenicol] | 4 µg/mL (≈ 12.4 µM) | less sensitive | 2 µg/mL (≈ 6.19 µM) | 2 µg/mL (≈ 6.19 µM) | 2 µg/mL (≈ 6.19 µM) | 2 µg/mL (≈ 6.19 µM) | sensitive | MIC, CLSI QC ranges [7]: 2 to 8 µg/mL
3 | C[C@H]1[C@H](NC(=O)/C(=N\OC(C)(C)C(=O)O)c2csc(N)n2)C(=O)N1S(=O)(=O)O [Aztreonam] | 0.25 µg/mL (≈ 0.574 µM) | less sensitive | 16 µg/mL (≈ 36.7 µM) | 32 µg/mL (≈ 73.5 µM) | 16 µg/mL (≈ 36.7 µM) | 16 µg/mL (≈ 36.7 µM) |  | 
4 | CN[C@H](CC(C)C)C(=O)N[C@H]1C(=O)N[C@@H](CC(N)=O)C(=O)N[C@H]2C(=O)N[C@H]3C(=O)N[C@H](C(=O)N[C@H](C(=O)O)c4cc(O)cc(O)c4-c4cc3ccc4O)[C@H](O)c3ccc(c(Cl)c3)Oc3cc2cc(c3O[C@@H]2O[C@H](CO)[C@@H](O)[C@H](O)[C@H]2O[C@H]2C[C@](C)(N)[C@H](O)[C@H](C)O2)Oc2ccc(cc2Cl)[C@H]1O [vancomycin] |  |  |  |  |  |  | sensitive | 
5 | Amoxicillin clavulanate |  | less sensitive |  |  |  |  |  | MIC [3]: 0.5 µg/mL; MIC [4]: 1 µg/mL; MIC [5]: 1 µg/mL; MIC [6]: 1 µg/mL
6 | CC[C@H]1OC(=O)[C@H](C)[C@@H](O[C@H]2C[C@@](C)(OC)[C@@H](O)[C@H](C)O2)[C@H](C)[C@@H](O[C@@H]2O[C@H](C)C[C@H](N(C)C)[C@H]2O)[C@](C)(O)C[C@@H](C)C(=O)[C@H](C)[C@@H](O)[C@]1(C)O [Erythromycin] | 64 µg/mL (≈ 87.2 µM) |  | 8 µg/mL (≈ 10.9 µM) | 15 µg/mL (≈ 20.4 µM) | 8 µg/mL (≈ 10.9 µM) | 15 µg/mL (≈ 20.4 µM) | sensitive | 
7 | C[C@@H](O)[C@H]1C(=O)N2C(C(=O)O)=C(S[C@@H]3CN[C@H](C(=O)N(C)C)C3)[C@H](C)[C@H]12 [Meropenem] | < 0.063 µg/mL | less sensitive | 8 µg/mL (≈ 20.9 µM) | 2 µg/mL (≈ 5.22 µM) | 2 µg/mL (≈ 5.22 µM) | 2 µg/mL (≈ 5.22 µM) |  | 
8 | penicillin |  |  |  |  |  |  | sensitive | 
9 | O=C(O)c1cn(C2CC2)c2cc(N3CCNCC3)c(F)cc2c1=O [Ciprofloxacin] |  |  | 0.25 µg/mL (≈ 0.754 µM) | 0.5 µg/mL (≈ 1.51 µM) | 0.5 µg/mL (≈ 1.51 µM) | 0.5 µg/mL (≈ 1.51 µM) | sensitive | 
10 | [H]/N=C(/N)N[C@H]1[C@H](O)[C@@H](O)[C@H](O[C@@H]2O[C@@H](C)[C@](O)(C=O)[C@H]2O[C@@H]2O[C@@H](CO)[C@H](O)[C@@H](O)[C@@H]2NC)[C@@H](N/C(N)=N\[H])[C@@H]1O [streptomycin] |  |  |  |  |  |  | sensitive | 
11 | NCC[C@H](O)C(=O)N[C@@H]1C[C@H](N)[C@@H](O[C@H]2O[C@H](CN)[C@@H](O)[C@H](O)[C@H]2O)[C@H](O)[C@H]1O[C@H]1O[C@H](CO)[C@@H](O)[C@H](N)[C@H]1O [Amikacin] | 2 µg/mL (≈ 3.42 µM) |  | 1 µg/mL (≈ 1.71 µM) | 2 µg/mL (≈ 3.42 µM) | 2 µg/mL (≈ 3.42 µM) | 2 µg/mL (≈ 3.42 µM) |  | MIC, CLSI QC ranges [7]: 0.5 to 4 µg/mL
12 | CC(=O)OCC1=C(C(=O)O)N2C(=O)[C@@H](NC(=O)Cc3cccs3)[C@H]2SC1 [cephalothin] |  |  |  |  |  |  | sensitive | 
13 | CC1(C)S[C@@H]2[C@H](NC(=O)[C@H](N)c3ccccc3)C(=O)N2[C@H]1C(=O)O [ampicillin] |  |  |  |  |  |  | sensitive | 
